Entries after “also recorded” stand apart in the source; their conditions may differ.
Assays:
[1] = test system: p-Erk (A375); assay: Cell-based phosphorylation assay with electroblotting readout; design: species or system human; details: Homo sapiens, A-375; A375 cells, 1 hr
From the text: Compounds of the present invention have been screened for their ability to inhibit all isoforms, both wild-type and mutant of RAF kinases (A-RAF, B-RAF and C-RAF) in general, and the mutant B-RAF (V600E) in particular in human cancer cells. A375 is a human melanoma cell line that harbors the most common B-RAF mutation-V600E found in human cancers. The ability of compounds to inhibit RAF kinases in this assay is correlated with the reduction of MEK and ERK phosphorylation, and is therefore a direct indicator of potential in vivo therapeutic activity.
Materials: A375 cells from ATCC were maintained at 37° C., 5% CO2 in DMEM media supplemented with 10% fetal bovine serum, penicillin/streptomycin and fungizone. (Invitrogen)
Methods: Test compounds were dissolved and diluted 1:1000 in DMSO. A375 cells were seeded in six-well tissue culture plates at 5-8×10^5 per well and cultured at 37° C. for 24 h. Cells were incubated with compounds for one hour before being lysed in EPage™ loading buffer (Invitrogen). Lysates were electrophoresed on 8% EPage™ gels and transferred to polyvinylidene difluoride membranes. After incubations with primary and secondary antibodies, the immunostained proteins were detected and quantitated by an Odyssey infrared imager (LI-COR). Analysis was performed by non-linear regression to generate a dose response curve. The calculated IC50 value was the concentration of the test compound that causes a 50% decrease in phospho-MEK and phospho-ERK levels. The primary antibodies used were anti-MEK (Stressgen), anti-ERK (BD Biosciences), anti-phospho-ERK and anti-phospho-MEK (Cell Signaling). The secondary antibodies used were IRDYE800 anti-rabbit, IRDYE 800 anti-mouse (Rockland), AlexaFluor680 anti-mouse and AlexaFluoro680 anti-rabbit (Invitrogen).
A375 cells were treated with 0, 12, 37, 111, 333 and 1000 nM of indicated compounds for 1 hr. The levels of Phospho-ERK and total-ERK were accessed by immunoblotting.

[2] = test system: human tumors (A375); assay: Xenograft model in athymic mice; assay type: in vivo, mouse
Method: Compound 17 was injected intra-peritoneally (IP) at 160 mg/kg and compound 19 was injected IP at 300 mg/kg (equivalent dose if expressed in mmole/kg, taking into account salt components).
A mouse xenograft model was performed according to the method of Jacob et al, Gene Ther Mol Biol 2004; 8:213-219 and Wilhelm et al, Cancer Research 2004; 64: 7099-7109.
Animal Care. Six week old female NCr nu/nu mice were purchased from Taconic Farms, Germantown, N.Y. and allowed to acclimate 1-2 weeks. Mice were housed in sterile micro isolator cages, 5 mice per cage and receive food and water ad libitum. All experimental procedures and surgical manipulations were approved in accordance with ArQule's Institutional Animal Care and Use Committee (IACUC).
Tumor Cell Lines and Model. Carcinoma cell lines were obtained from and propagated as recommended by American Type Tissue Culture (ATCC), (Manassas, Va.). Mice were implanted subcutaneously with 2.5-10×10^6 cells in 0.1 ml sterile Hanks Balanced Salt Solution (HBSS) in the upper right flank area. […] Tumor weight (mg) was calculated from the equation length×(width)^2)/2; this formula can also be used to calculate tumor volume assuming unit density 1 mg=1 mm^3 Percent inhibition or tumor growth inhibition (TGI) was calculated using the following formula: 1-[mean tumor value of treated/mean tumor value of control]×100. […]

[3] = test system: DU145; assay: Cell growth inhibition assay (MTS); assay type: cell-based; details: Homo sapiens, DU-145; DU145, prostate
Method: (§1) Compounds of the present invention have been tested for activity against a variety of cancer cell lines. The ability of compounds to inhibit cell growth in this assay is correlated with the reduction of dehydrogenase enzyme activity found in metabolically active cells.
(§2) Materials: A large variety of cancer cells from ATCC were maintained at 37° C., 5% CO2 in DMEM media supplemented with 10% fetal bovine serum, penicillin/streptomycin and fungizone (Invitrogen). NCM460 (Incell), a normal colon epithelial cell line, and human mammary epithelial cells (Cambrex) were maintained at 37° C., 5% CO2 in DMEM and HEBM media (Cambrex), respectively.
(§3) Methods: Test compounds were dissolved and diluted to 300× in DMSO then diluted 1:40 in DMEM. Cells were seeded into 96-well tissue culture plates at 1-5×10^3 per well and cultured at 37° C. for 24 h. Cells were incubated with test compounds for 72 hours followed by incubation with tetrazolium compound (3-(4,5-dimethylthiazol-2-yl)-5-(3-carboxymethoxyphenyl)-2-(4-sulfophenyl)-2H-tetrazolium, inner salt; MTS) and the electron coupling reagent, phenazine methosulfate (PMS) for 4 hr. […] The measurement of the absorbance of the formazan was assessed using an ENVISION™ (Perkin Elmer) microplate reader at 492 nm. The calculated IC50 value is the concentration of the test compound that causes a 50% decrease in the absorbance.

[4] = test system: SNU-16; assay: Cell growth inhibition assay (MTS); assay type: cell-based; details: Homo sapiens; SNU-16, gastric Carcinoma
Method: as §1, §2, §3

[5] = test system: COLO-205; assay: Cell growth inhibition assay (MTS); assay type: cell-based; details: Homo sapiens; COLO-205, colon
Method: as §1, §2, §3

[6] = test system: HPAF-II; assay: Cell growth inhibition assay (MTS); assay type: cell-based; details: Homo sapiens, pancreas
Method: as §1, §2, §3

[7] = test system: NCI-H358; assay: Cell growth inhibition assay (MTS); assay type: cell-based; details: Homo sapiens; NCI-H358, non-small cell lung cancer, brancioalveolar carcinoma
Method: as §1, §2, §3

[8] = test system: RT112; assay: Cell growth inhibition assay (MTS); assay type: cell-based; details: RT-112; RT112, human urinary bladder cell carcinoma
Method: as §1, §2, §3

[9] = test system: SNU475; assay: Cell growth inhibition assay (MTS); assay type: cell-based; details: Homo sapiens, SNU-475; SNU475, liver
Method: as §1, §2, §3

[10] = test system: NCI-H1299; assay: Cell growth inhibition assay (MTS); assay type: cell-based; details: Homo sapiens; NCI-H1299, non-small cell lung carcinoma
Method: as §1, §2, §3

[11] = test system: NCI-H661; assay: Cell growth inhibition assay (MTS); assay type: cell-based; details: Homo sapiens; NCI-H661, large cell lung carcinoma
Method: as §1, §2, §3

[12] = test system: SW780; assay: Cell growth inhibition assay (MTS); assay type: cell-based; details: Homo sapiens; SW780, bladder
Method: as §1, §2, §3

[13] = test system: SKMES-1; assay: Cell growth inhibition assay (MTS); assay type: cell-based; details: Homo sapiens, SK-MES-1; SKMES-1, squamous cell carcinoma
Method: as §1, §2, §3

[14] = test system: Kato111; assay: Cell growth inhibition assay (MTS); assay type: cell-based; details: Homo sapiens; Kato111, gastric carcinoma
Method: as §1, §2, §3

[15] = test system: THP-1; assay: Cell growth inhibition assay (MTS); assay type: cell-based; details: Homo sapiens; THP-1, acute monocytic leukemia
Method: as §1, §2, §3

EC50 [1] [µM]	GI50 [3] [µM]	GI50 [4] [µM]	GI50 [5] [µM]	GI50 [7] [µM]	GI50 [9] [µM]	GI50 [10] [µM]	GI50 [11] [µM]	GI50 [12] [µM]	GI50 [13] [µM]	GI50 [15] [µM]	Structure (SMILES)	anti-tumor activity in a xenograft cancer model ([2]; IP at 160 mg/kg, FIG. 3, 160 mg/kg)	anti-tumor activity in a xenograft cancer model ([2]; IP at 300 mg/kg, FIG. 3, 300 mg/kg)	GI50 [6] [µM]	GI50 [8] [µM]	GI50 [14] [µM]
0.093	–	–	–	–	–	–	–	–	–	–	Cn1ccc(S(=O)(=O)N2CCC[C@@H](Nc3nccc(-c4c(-c5cccc(O)c5)nc5occn45)n3)C2)n1 [Compound 17, (R)-3-(5-(2-(1-(1-methyl-1H-pyrazol-3-ylsulfonyl)piperidin-3-ylamino)pyrimidin-4-yl)imidazo[2,1-b]oxazol-6-yl)phenol]	retain their anti-tumor activity; also recorded: equally effective	–	–	–	–
0.095	9.62	15.7	0.25	7.5	29.1	6.38	16.2	9.1	9.02	10.3	Cn1ccc(S(=O)(=O)N2CCC[C@@H](Nc3nccc(-c4c(-c5cccc(OCOP(=O)(O)O)c5)nc5occn45)n3)C2)n1 [Compound 19, (R)-(3-(5-(2-(1-(1-methyl-1H-pyrazol-3-ylsulfonyl)piperidin-3-ylamino)pyrimidin-4-yl)imidazo[2,1-b]oxazol-6-yl)phenoxy)methyl dihydrogen phosphate]	–	retain their anti-tumor activity; also recorded: equally effective	5.78	1.92	6.11
